Test results taken from PubChem BioAssay (NCI).
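Dose response: 5 concentrations. Exposure: 48 h. Format: 96-well plates. Endpoint: linear interpolation; highest concentration if not reached. At the TGI there is no net growth.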

Assays:
Assay in all cases: NCI-60 cell line screen, 48 h
[1] = test system: 786-0 renal
[2] = test system: A498 renal
[3] = test system: A549 NSCLC
[4] = test system: ACHN renal
[5] = test system: CAKI-1 renal
[6] = test system: CCRF-CEM leukemia
[7] = test system: COLO 205 colon
[8] = test system: DLD-1 colon
[9] = test system: DMS 273 small cell lung
[10] = test system: EKVX NSCLC
[11] = test system: HCC-2998 colon
[12] = test system: HL-60(TB) leukemia
[13] = test system: HOP-62 NSCLC
[14] = test system: HOP-92 NSCLC
[15] = test system: HT29 colon
[16] = test system: IGROV1 ovarian
[17] = test system: K-562 leukemia
[18] = test system: KM12 colon
[19] = test system: KM20L2 colon
[20] = test system: LOX IMVI melanoma
[21] = test system: LXFL 529 NSCLC
[22] = test system: M14 melanoma
[23] = test system: M19-MEL melanoma
[24] = test system: MALME-3M melanoma
[25] = test system: MOLT-4 leukemia
[26] = test system: NCI-H226 lung
[27] = test system: NCI-H23 lung
[28] = test system: NCI-H460 lung
[29] = test system: NCI-H522 lung
[30] = test system: OVCAR-3 ovarian
[31] = test system: OVCAR-4 ovarian
[32] = test system: OVCAR-5 ovarian
[33] = test system: OVCAR-8 ovarian
[34] = test system: RPMI-8226 leukemia
[35] = test system: RXF 393 renal
[36] = test system: RXF-631 renal
[37] = test system: SF-268 CNS
[38] = test system: SF-295 CNS
[39] = test system: SF-539 CNS
[40] = test system: SK-MEL-2 melanoma
[41] = test system: SK-MEL-28 melanoma
[42] = test system: SK-MEL-5 melanoma
[43] = test system: SK-OV-3 ovarian
[44] = test system: SN12C renal
[45] = test system: SNB-19 CNS
[46] = test system: SNB-75 CNS
[47] = test system: SNB-78 CNS
[48] = test system: SW-620 colon
[49] = test system: TK-10 renal
[50] = test system: U251 CNS
[51] = test system: UACC-257 melanoma
[52] = test system: UO-31 renal
[53] = test system: XF 498 CNS
[54] = test system: HCT-116 colon
[55] = test system: HCT-15 colon
[56] = test system: SR leukemia
[57] = test system: UACC-62 melanoma
[58] = test system: DMS 114 small cell lung
[59] = test system: HOP-18 NSCLC

**Q.** With `CCc1cccc(C)c1NC(=O)C1=C(C)NC(C)=C(C(=O)Nc2c(C)cccc2CC)C1c1ccc([N+](=O)[O-])cc1` as the compound, how does the TGI [1] read?
**A.** Its TGI is greater than 100 µM.

**Q.** And the TGI [2]?
**A.** The TGI was greater than 100 µM.

**Q.** And the TGI [3]?
**A.** The TGI was greater than 100 µM.

**Q.** What about the TGI [4] of the same compound?
**A.** Its TGI is greater than 100 µM.

**Q.** What about the TGI [5] of the same compound?
**A.** The TGI was 89.6 µM.

**Q.** And the TGI [6]?
**A.** The TGI was greater than 100 µM.

**Q.** And the TGI [7]?
**A.** The TGI was greater than 100 µM.

**Q.** And the TGI [8]?
**A.** The TGI was greater than 100 µM.

**Q.** What about the TGI [9] of the same compound?
**A.** Its TGI is greater than 100 µM.

**Q.** And the TGI [10]?
**A.** The TGI was greater than 100 µM.

**Q.** What about the TGI [11] of the same compound?
**A.** The TGI was greater than 100 µM.

**Q.** What about the TGI [12] of the same compound?
**A.** The TGI was 49.5 µM.

**Q.** And the TGI [13]?
**A.** The TGI was greater than 100 µM.

**Q.** What about the TGI [14] of the same compound?
**A.** Its TGI is 30.1 µM.

**Q.** And the TGI [15]?
**A.** Its TGI is greater than 100 µM.

**Q.** And the TGI [16]?
**A.** The TGI was greater than 100 µM.

**Q.** And the TGI [17]?
**A.** Its TGI is greater than 100 µM.

**Q.** What about the TGI [18] of the same compound?
**A.** Its TGI is greater than 100 µM.

**Q.** And the TGI [19]?
**A.** Its TGI is greater than 100 µM.

**Q.** What about the TGI [20] of the same compound?
**A.** The TGI was greater than 100 µM.

**Q.** And the TGI [21]?
**A.** Its TGI is greater than 100 µM.

**Q.** What about the TGI [22] of the same compound?
**A.** Its TGI is greater than 100 µM.

**Q.** And the TGI [23]?
**A.** Its TGI is greater than 100 µM.

**Q.** And the TGI [24]?
**A.** The TGI was greater than 100 µM.

**Q.** And the TGI [25]?
**A.** Its TGI is 46.6 µM.

**Q.** What about the TGI [26] of the same compound?
**A.** The TGI was greater than 100 µM.

**Q.** And the TGI [27]?
**A.** The TGI was greater than 100 µM.

**Q.** And the TGI [28]?
**A.** The TGI was greater than 100 µM.

**Q.** What about the TGI [29] of the same compound?
**A.** The TGI was 68.3 µM.

**Q.** And the TGI [30]?
**A.** The TGI was greater than 100 µM.

**Q.** What about the TGI [31] of the same compound?
**A.** Its TGI is greater than 100 µM.

**Q.** What about the TGI [32] of the same compound?
**A.** The TGI was greater than 100 µM.

**Q.** And the TGI [33]?
**A.** Its TGI is greater than 100 µM.

**Q.** What about the TGI [34] of the same compound?
**A.** The TGI was 57.3 µM.

**Q.** What about the TGI [35] of the same compound?
**A.** Its TGI is greater than 100 µM.

**Q.** And the TGI [36]?
**A.** The TGI was greater than 100 µM.

**Q.** And the TGI [37]?
**A.** The TGI was greater than 100 µM.

**Q.** And the TGI [38]?
**A.** Its TGI is greater than 100 µM.

**Q.** And the TGI [39]?
**A.** The TGI was greater than 100 µM.

**Q.** What about the TGI [40] of the same compound?
**A.** Its TGI is greater than 100 µM.

**Q.** And the TGI [41]?
**A.** Its TGI is greater than 100 µM.

**Q.** And the TGI [42]?
**A.** The TGI was greater than 100 µM.

**Q.** And the TGI [43]?
**A.** Its TGI is greater than 100 µM.

**Q.** And the TGI [44]?
**A.** The TGI was greater than 100 µM.

**Q.** And the TGI [45]?
**A.** The TGI was greater than 100 µM.

**Q.** What about the TGI [46] of the same compound?
**A.** Its TGI is greater than 100 µM.

**Q.** And the TGI [47]?
**A.** The TGI was greater than 100 µM.

**Q.** And the TGI [48]?
**A.** The TGI was greater than 100 µM.

**Q.** What about the TGI [49] of the same compound?
**A.** Its TGI is greater than 100 µM.

**Q.** What about the TGI [50] of the same compound?
**A.** Its TGI is greater than 100 µM.

**Q.** What about the TGI [51] of the same compound?
**A.** Its TGI is greater than 100 µM.

**Q.** And the TGI [52]?
**A.** Its TGI is greater than 100 µM.

**Q.** And the TGI [53]?
**A.** Its TGI is 66.9 µM.

**Q.** What does the source list for `COc1ccc2cc1Oc1ccc(cc1)CC1c3cc4c(cc3CCN1C)Oc1c(OC)cc3c(c1O4)C(C2)N(C)CC3` (centres undefined)?
**A.** TGI [1]: 23 µM; TGI [3]: 21.4 µM; TGI [4]: 17.9 µM; TGI [6]: 6.69 µM; TGI [7]: 2.83 µM; TGI [8]: 9.62 µM; TGI [9]: 3.02 µM; TGI [10]: 24.2 µM; TGI [11]: 9.86 µM; TGI [54]: 3.21 µM; TGI [55]: 5.82 µM; TGI [12]: 4.25 µM; TGI [13]: 28 µM; TGI [15]: 4.77 µM; TGI [17]: 6.02 µM; TGI [18]: 4.57 µM; TGI [19]: 9.25 µM; TGI [20]: 2.81 µM; TGI [21]: 11 µM; TGI [22]: 3 µM; TGI [23]: 14.3 µM; TGI [25]: 4.73 µM; TGI [26]: 10.7 µM; TGI [27]: 18.2 µM; TGI [28]: 3.6 µM; TGI [29]: 4.67 µM; TGI [30]: 19.5 µM; TGI [31]: 3.03 µM; TGI [32]: 26.5 µM; TGI [33]: 5.45 µM; TGI [35]: 7.93 µM; TGI [36]: 31.1 µM; TGI [37]: 13.1 µM; TGI [38]: 3.81 µM; TGI [39]: 3.9 µM; TGI [40]: 6.53 µM; TGI [41]: 2.91 µM; TGI [42]: 21.1 µM; TGI [44]: 3.62 µM; TGI [45]: 13.5 µM; TGI [47]: 48 µM; TGI [56]: 4.68 µM; TGI [48]: 3.79 µM; TGI [49]: 31.3 µM; TGI [50]: 4.47 µM; TGI [57]: 10.5 µM; TGI [53]: 3.41 µM

**Q.** Which results are given for `O=C1/C(=C\c2ccccc2)C2/C(=C\c3ccccc3)C(=O)/C(=C\c3ccccc3)C2/C1=C\c1ccccc1` (centres undefined)?
**A.** TGI [1]: 2.78 µM; TGI [3]: 7 µM; TGI [4]: 5.94 µM; TGI [5]: 8.17 µM; TGI [6]: 4.35 µM; TGI [7]: 2.94 µM; TGI [8]: 2.85 µM; TGI [58]: 5.67 µM; TGI [9]: 3.17 µM; TGI [10]: 52.7 µM; TGI [11]: 2.59 µM; TGI [12]: 4.5 µM; TGI [59]: > 100 µM; TGI [13]: 5.03 µM; TGI [14]: 4.4 µM; TGI [15]: 3.7 µM; TGI [16]: 4.8 µM; TGI [17]: > 100 µM; TGI [18]: 3.54 µM; TGI [19]: 3.55 µM; TGI [20]: 1.75 µM; TGI [21]: 24.9 µM; TGI [22]: 3.44 µM; TGI [23]: 3.47 µM; TGI [24]: 4.36 µM; TGI [27]: 3.78 µM; TGI [28]: 4.2 µM; TGI [29]: 2.09 µM; TGI [30]: 4.92 µM; TGI [31]: 3.83 µM; TGI [32]: 2.82 µM; TGI [33]: 21.2 µM; TGI [35]: 3.15 µM; TGI [36]: 9.68 µM; TGI [37]: 18.5 µM; TGI [38]: 5.71 µM; TGI [39]: 6.81 µM; TGI [40]: 3.62 µM; TGI [41]: 8.75 µM; TGI [42]: 4.7 µM; TGI [43]: 46.9 µM; TGI [44]: 4.89 µM; TGI [46]: 71.2 µM; TGI [48]: 7.26 µM; TGI [49]: 19.5 µM; TGI [50]: 2.43 µM; TGI [51]: 4.2 µM; TGI [57]: 4.24 µM; TGI [52]: 3.32 µM
